Like-named read-outs stand apart in the source and are kept apart here.
Assays:
[1] = Multiple-dosing PK study, tissue concentration in lung and liver; assay type: in vivo; settings: mice, 200 mg/kg oral twice daily, after the eighth dose (four days)
Experimental: Additionally, in a multiple-dosing PK study, II-3 was orally administered to 3 mice with 200 mg/kg doses (dose volume 10 mL/kg) twice daily (12 h intervals). After the animals were sacrificed, the liver and lung were removed. The homogenates of the respective tissues were analyzed by LC-MS to determine the concentration of the compound. The tissue concentration in lung and liver after the eighth dose (four days) was 6,800 and 10,400 ng/g, respectively, showing that the compound reaches the tissue at pharmacological active concentration.

[2] = Single-dose oral pharmacokinetic profile in mice; assay type: in vivo; settings: male C57BL/6 mice, single oral dose 200 mg/kg
Experimental: Presumed from promising Papp values (permeability coefficients, see below), the 5 inventors had proven the oral bioavailability of the inhibitors of the present application by the representative compounds II-3, II-15, and II-28. For this selected set of representative compounds, pharmacokinetic profiles were determined in male C57BL/6 mice (N=3, each). Briefly, the compounds were administered as single-dose soluble, oral formulation [20 mg/ml in PBS/(2—Hydroxypropyl)-β-cyclodextrin formulation] at 200 mg/kg. Plasma samples were taken at (0, 0.25, 0.5, 1, 2, 4, and 6 hours) and analyzed by LC-MS to determine the concentration of the representative compounds.

[3] = logD by shake flask method (octanol / PBS pH 7.4, HPLC); assay type: physicochemical; settings: octanol / PBS pH 7.4, shake flask
Method in brief: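 LogD obtained by HPLC measurement of how the compound distributes between PBS (pH 7.4) and octanol in a shake-flask experiment.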

[4] = Caco-2 permeability assay (CacoReady kit); assay type: in vitro ADME; settings: human
Method in brief: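 Caco-2 monolayer barrier, commercial ready-to-use kit, manufacturer protocol. Read-out: Papp.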

CNC(=O)C(=O)CC[C@H](NC(=O)c1oc2ccccc2c1C)C(=O)Nc1cccn(CC(=O)NC2C3CC4CC(C3)CC2C4)c1=O (stereo partly drawn) [II-3, (S)-N1-(1-(2-(2-adamantylamino)-2-oxoethyl)-2-oxo-1,2-dihydropyridin-3-yl)-N6-methyl-2-(3-methylbenzofuran-2-carboxamido)-5-oxohexanediamide]
tissue concentration in liver [1]: 10,400 ng/g | tissue concentration in lung [1]: 6,800 ng/g | Kel [2]: 1.0 h⁻¹ | CL/F ([2]; mouse, plasma): 16.6 L/h/kg | MRT ([2]; mouse, plasma): 60 min | half-life ([2]; mouse, plasma): 42 min | AUC(0-t) ([2]; mouse, plasma): 12 µg·h/mL | Cmax ([2]; mouse, plasma, read-out: Cmax): 21.6 µM | Cmax ([2]; mouse, plasma, read-out: Cmax [ng/ml]): 13600 ng/mL | logD [3]: 1 to 3 | Papp ([4]; Caco-2, Caco-2, read-out: Papp [cm/s] ×10^−6): 84 nm/s | Papp ([4]; Caco-2, Caco-2 barrier, CacoReady kit, above 1×10^−6 cm/s classified as permeable): 10 to 100 nm/s
